Data on 70 compounds can be found in ChEMBL document CHEMBL3507680, “University of Dundee, Gates Library screen for HepG2 cell viability”.

This data set in a line: Human HepG2 cell viability assay in 384 well format. The class given is toxicity, cell-based. Particulars: HepG2 cells, read-out: Inhibition. More on the design: dose 125 nL, time 70.5 hour; concentration not given beside the values.
As for `CC(C)(C)c1nc(CN2CCOC(Cn3cncn3)C2)cs1` (stereo not given), the cytotoxicity at 70.5 h was determined as 1.47%.

Regarding `Cc1cnc(N2CCCC3(CCCN(C)C3)C2)nc1` (stereo not given), the cytotoxicity at 70.5 h was -0.385%.

For the compound `O=C1CO[C@@H]2CN(Cc3cccnc3)C[C@H]2N1Cc1ccncc1`, the cytotoxicity at 70.5 h was -6.09%.

`O=C(CCSc1ccc(F)cc1)NS(=O)(=O)c1ccc2c(c1)OCCO2`: the cytotoxicity at 70.5 h is -6.96%.

As to `Fc1ccc(CN2CCC3(CC2)CCN(c2ncccn2)CC3)cc1`, the cytotoxicity at 70.5 h turned out to be 10.9%.

In the case of `O=C(CCNS(=O)(=O)c1ccc2c(c1)CCCC2)NCc1ccoc1`, the cytotoxicity at 70.5 h was -11.5%.

Turning to `COc1cc(C)nc(N2CCN(C(=O)CNC(C)(C)C)CC2)n1`, the cytotoxicity at 70.5 h is -15.6%.

Turning to `COCCN(C(=O)c1ccccn1)c1nc2c(s1)CCc1c-2cnn1C`, the cytotoxicity at 70.5 h amounted to 14.7%.

Turning to `Cc1noc(C(C)Nc2ccc(N3CCOCC3)cc2C)n1` (stereo not given), the cytotoxicity at 70.5 h is -4.53%.

As to `Cc1nnc([C@@H]2CC[C@@H]3[C@@H](CCN3C3CCC3)O2)o1`, the cytotoxicity at 70.5 h was -4.45%.

For the compound `Cc1nc2c(NCC(C)N(C)c3ccccc3)ncnc2o1` (stereo not given), the cytotoxicity at 70.5 h was -5.13%.

With `N#Cc1c(F)cccc1Nc1cnn(CC(O)CN2CCOCC2)c1` (stereo not given), the cytotoxicity at 70.5 h is -102%.

Regarding `CC1CCCCN1Cc1nc(Cc2ccccc2)no1` (stereo not given), the cytotoxicity at 70.5 h is -10.4%.

`Cc1cc(C)n(CCN(C)Cc2c[nH]nc2-c2ccc3c(c2)OCO3)n1`: the cytotoxicity at 70.5 h was -5.98%.

Regarding `CCn1ccnc1CNCC(c1ccc(C)s1)N1CCOCC1` (stereo not given), the cytotoxicity at 70.5 h was -7.92%.

On to `CC(C)NC(=O)C1CN(Cc2ccc(F)cc2)CC12CCOCC2` (stereo not given), for which the cytotoxicity at 70.5 h was -10.5%.

Turning to `Cc1cc(CN2CCN(CCOc3cccc(C#N)c3)CC2)no1`, the cytotoxicity at 70.5 h came to 5.03%.

Take `Cc1nc(C)c(C(C)NCc2c(C)nn(CC(C)C)c2N(C)C)s1` (stereo not given): the cytotoxicity at 70.5 h was -3.31%.

Take `CN1N=C(c2nc(Cc3cccc(Br)c3)no2)CCC1=O`: the cytotoxicity at 70.5 h is -2.2%.

With `CC(C)(C)CC(=O)NCC(=O)NS(=O)(=O)c1cccnc1`, the cytotoxicity at 70.5 h is 2.71%.

As to `O=C(O)C(c1ccc2c(c1)OCCO2)N1CCC(N2CCSCC2)CC1` (stereo not given), the cytotoxicity at 70.5 h is -1.86%.

Consider `CCCn1cc(C(=O)NCCS(N)(=O)=O)c2ccccc21`, for which the cytotoxicity at 70.5 h came to 15.9%.

Consider `CN(C)S(=O)(=O)NCc1cccnc1Oc1ccccc1F`, for which the cytotoxicity at 70.5 h stood at 1.78%.

Regarding `CC1CCCN(Cc2ccc(OCc3nccn3C)cc2)C1` (stereo not given), the cytotoxicity at 70.5 h is 14.2%.

`COc1nn(C)c2c1CCCN(C(=O)c1cc[nH]n1)C2`: the cytotoxicity at 70.5 h is -13%.

In the case of `Cc1cccc(N2N=C(C(=O)NC(C)Cc3ccco3)CCC2=O)c1` (stereo not given), the cytotoxicity at 70.5 h is -13.7%.

Regarding `COc1cccc(OCCN2CC[C@@](O)(C3CCOCC3)[C@H](C)C2)c1`, the cytotoxicity at 70.5 h was determined as 1.27%.

In the case of `O=C(NCCCOCC1CC1)Nc1ccc(F)cc1`, the cytotoxicity at 70.5 h amounted to 0.857%.

With `COC(=O)c1ccc(N2CCN(C(=O)c3cccnc3)C(C)C2)cc1` (stereo not given), the cytotoxicity at 70.5 h is -4.39%.

With `CCc1ccc(CNC(=O)CCNS(=O)(=O)c2cn(C)c(C)n2)s1`, the cytotoxicity at 70.5 h is -7.93%.

As for `Cn1cc(C(=O)N2CCOc3ccccc32)ccc1=O`, the cytotoxicity at 70.5 h is -12.6%.

In the case of `Cc1ccccc1-n1cc(CNC(=O)CC2C(=O)NCCN2C)cn1` (stereo not given), the cytotoxicity at 70.5 h was -1.91%.

For the compound `CSCC(CCO)NC(=O)c1cccc(C)c1Cl` (stereo not given), the cytotoxicity at 70.5 h was -13.9%.

`CCN(C)Cc1nc(-c2ccccc2NS(C)(=O)=O)oc1C`: the cytotoxicity at 70.5 h is -10.5%.

As for `C1CCN(c2nc(N3CCOCC3)nc3[nH]nnc23)CC1`, the cytotoxicity at 70.5 h is -5.52%.

For `O=C(CCCNc1ncccn1)N1CCCC(n2cccn2)C1` (stereo not given), the cytotoxicity at 70.5 h amounted to 34.1%.

Consider `CC1=N[C@@]2(CC[C@@H]3CN(C(=O)NCc4ccccc4C)C[C@@H]32)C(=O)N1`, for which the cytotoxicity at 70.5 h came to 7.73%.

On to `CCn1cnnc1CNC(=O)N(C)Cc1c(F)cccc1Cl`, for which the cytotoxicity at 70.5 h is -8.68%.

In the case of `Cc1ccc(N2CC[C@H](OCC3CC3)[C@@H]2Cc2ccncc2)nn1`, the cytotoxicity at 70.5 h is -4.81%.

As to `COc1ccc2c(c1)C1(CCN(Cc3ccncc3)CC1)N(C)CC2`, the cytotoxicity at 70.5 h was -10.8%.

On to `c1cnc2[nH]c(C3CCCC3)c(CN3CCOCC3)c2c1`, for which the cytotoxicity at 70.5 h is -9.59%.

Turning to `CS(=O)(=O)N1C[C@@H]2CCN(C(=O)c3ccco3)[C@@H]2C1`, the cytotoxicity at 70.5 h is -2.6%.

`Cc1cc(C)n(CC(C)NC(=O)c2cc(CN3CCC(O)CC3)on2)n1` (stereo not given): the cytotoxicity at 70.5 h is -9.49%.

`CC1CCCN(CCCNC(=O)c2cn(C)nc2-c2cccnc2)C1` (stereo not given): the cytotoxicity at 70.5 h is -2.34%.

Consider `COCCO[C@H]1CCN(C(=O)c2ccno2)[C@H]1Cc1ccncc1`, for which the cytotoxicity at 70.5 h was -11.9%.

Regarding `CC(C)CCc1nc(CNCC2CCCN2c2cccnn2)cs1` (stereo not given), the cytotoxicity at 70.5 h came out at 12.1%.

On to `Cc1cccc2c1nc(COCC(=O)O)n2-c1ccc(N)nc1`, for which the cytotoxicity at 70.5 h came to 9.09%.

Consider `CNC(=O)CN1CCOCC12CCN(Cc1ccncc1)CC2`, for which the cytotoxicity at 70.5 h is -16.2%.

Take `CCN(CC)Cc1ccc(C(=O)N2CCCC2c2cnn(C)c2)o1` (stereo not given): the cytotoxicity at 70.5 h is 21.2%.

`CCc1nc(C)c(C(=O)NCCNc2cnccn2)s1`: the cytotoxicity at 70.5 h is 3.09%.

Regarding `Cc1cc(CN2CCC3(CC2)CC(Nc2ncccn2)CO3)nn1C` (stereo not given), the cytotoxicity at 70.5 h is -35.4%.

As to `COc1ccc(C2=C(C)C(N3CCc4ccccc43)=NS2(=O)=O)cc1`, the cytotoxicity at 70.5 h is -12.7%.

Regarding `Cc1ccc2c(c1)cc(CN1CC[C@](C)(O)[C@H](C)C1)n2C`, the cytotoxicity at 70.5 h was -0.93%.

Take `CC(=O)N1CCCN(CC(C)(O)c2cccc(C(F)(F)F)c2)CC1` (stereo not given): the cytotoxicity at 70.5 h was -3.98%.

For the compound `CC(=O)N1CCC(c2nccnc2-c2ccc(F)c(F)c2)CC1`, the cytotoxicity at 70.5 h is -0.906%.

For `CC(C)c1noc(CN2CCN(C(=O)c3cccnc3O)CC2)n1`, the cytotoxicity at 70.5 h is -3.73%.

Consider `CCn1ccc(-c2nnc(SCC(=O)Nc3ccc(C)cc3)n2CC)n1`, for which the cytotoxicity at 70.5 h was -13.9%.

With `CN(Cc1cccc(F)c1)C1CCN(CCc2ccccn2)CC1`, the cytotoxicity at 70.5 h amounted to 15.1%.

As for `COc1ccc(OC)c(CN(Cc2ccco2)Cc2[nH]cnc2C)c1`, the cytotoxicity at 70.5 h is -10.2%.

`Cn1nc(C2CCN(C(=O)CN3CCCCC3)CC2)c2cccnc21`: the cytotoxicity at 70.5 h is -4.57%.

Consider `O=C(C[S+]([O-])Cc1cccc(F)c1)NC1CCCC1` (stereo not given), for which the cytotoxicity at 70.5 h turned out to be 0.67%.

For the compound `O=C(c1cnccn1)N1CCCC2(CCCN2Cc2cccnc2)C1` (stereo not given), the cytotoxicity at 70.5 h was -1.76%.

As for `CC(C)c1noc(CCNC(=O)NCC2COc3ccccc3O2)n1` (stereo not given), the cytotoxicity at 70.5 h was -11.6%.

For `CC(C)(C)c1n[nH]c(C2CN(C(=O)CCCn3cccn3)CCO2)n1` (stereo not given), the cytotoxicity at 70.5 h stood at 0.387%.

Consider `O=C(Cn1ccc2c(Cl)cccc21)N[C@@H](C(=O)O)c1ccccc1`, for which the cytotoxicity at 70.5 h is 0.804%.

For `CC(=O)Nc1nc(C2CCN(C(=O)c3ccncc3)CC2)cs1`, the cytotoxicity at 70.5 h is 24.9%.

As for `CC(C)N(C)[C@@H]1CCN(Cc2nccs2)[C@H]1Cc1ccncc1`, the cytotoxicity at 70.5 h is -8.84%.

As to `CSc1ncccc1C(=O)Nc1ccc(Cn2ccccc2=O)cc1`, the cytotoxicity at 70.5 h came out at 18.3%.

For the compound `COC(=O)CNC(=O)CSCc1nc(O)c2cc(C)sc2n1`, the cytotoxicity at 70.5 h turned out to be 4.84%.

For the compound `Cc1nn(C)c(Cl)c1C1CCCN1C(=O)c1ccc(N(C)C)nn1` (stereo not given), the cytotoxicity at 70.5 h was -12.9%.
